The target in series [1] is T1, Serotonin reuptake (whole rat brain synaptosomes) (Rattus norvegicus, UniProt P31652).
T1 construct: from tissue; host or cells: whole rat brain synaptosomes
In words: Inhibition of 3H-5-HT uptake into rat brain synaptosomes. Format: biochemical. The protocol: Inhibition of ^3H-5-HT Uptake Into Rat Brain Synaptosomes
Using this method the ability of drugs to inhibit the accumulation of ^3H-5-HT into whole rat brain synaptosomes is determined in vitro.

Series [2] has as its target T2, cloned human 5-HT1A receptors (Homo sapiens, UniProt P08908).
T2 construct: expressed in transfected cells; host or cells: HeLa cells (HA7)
T2 sequence (P08908 1-422): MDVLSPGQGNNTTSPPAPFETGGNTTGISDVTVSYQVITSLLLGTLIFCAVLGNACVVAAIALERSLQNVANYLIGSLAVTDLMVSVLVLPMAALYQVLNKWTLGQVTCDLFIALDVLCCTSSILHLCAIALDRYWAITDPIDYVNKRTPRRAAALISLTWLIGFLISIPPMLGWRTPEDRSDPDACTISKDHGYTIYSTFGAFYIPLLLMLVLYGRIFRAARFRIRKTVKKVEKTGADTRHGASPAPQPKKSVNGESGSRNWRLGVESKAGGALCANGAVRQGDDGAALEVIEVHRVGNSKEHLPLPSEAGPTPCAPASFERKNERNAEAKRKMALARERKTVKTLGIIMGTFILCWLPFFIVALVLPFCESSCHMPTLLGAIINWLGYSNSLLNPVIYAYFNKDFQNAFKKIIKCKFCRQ
In words: Inhibition of 3H-5-CT binding to human 5-HT1A receptors. Here is the method: The affinity of the compounds of the invention to 5-HT1A receptors was determined by measuring the inhibition of binding of a radioactive ligand at 5-HT1A receptors as described in the following test:
Inhibition of ^3H-5-CT Binding to Human 5HT1A Receptors
By this method the inhibition by drugs of the binding of the 5-HT1A agonist ^3H-5-carboxamido tryptamine (^3H-5-CT) to cloned human 5-HT1A receptors stably expressed in transfected HeLa cells (HA7) (Fargin, A. et al, J. Biol. Chem., 1989, 264, 14848) is determined in vitro. The assay was performed as a modification of the method described by Harrington, M. A. et al, J. Pharmacol. Exp. Ther., 1994, 268, 1098. Human 5-HT1A receptors (40 μg of cell homogenate) were incubated for 15 minutes at 37° C. in 50 mM Tris buffer at pH 7.7 in the presence of ^3H-5-CT. Non-specific binding was determined by including 10 μM of metergoline. The reaction was terminated by rapid filtration through Unifilter GF/B filters on a Tomtec Cell Harvester. Filters were counted in a Packard Top Counter.

Setting [3] is: cloned human 5-HT1A receptors in transfected HeLa cells (HA7), 15 minutes at 37° C., pH 7.7.
The mark [4] stands for this setting: 3H-5-HT accumulation into whole rat brain synaptosomes, in vitro, read-out: Inhibition of Serotonin reuptake IC50.

31 molecules from patent US6391882B1, “4,5,6 and 7-indole and indoline derivatitives, their preparation and use” (H. Lundbeck A/S, priority 1998, dated 2002) can be followed below.

One may read the melting point as the temperature of the solid-liquid transition. Usually IC50 stands for the concentration at which inhibition is half-maximal.

Structures can show the parent of a compound that is named as a salt. Where two headings read alike, the source gives them in different places.

T1 sequence (P31652 whole entry): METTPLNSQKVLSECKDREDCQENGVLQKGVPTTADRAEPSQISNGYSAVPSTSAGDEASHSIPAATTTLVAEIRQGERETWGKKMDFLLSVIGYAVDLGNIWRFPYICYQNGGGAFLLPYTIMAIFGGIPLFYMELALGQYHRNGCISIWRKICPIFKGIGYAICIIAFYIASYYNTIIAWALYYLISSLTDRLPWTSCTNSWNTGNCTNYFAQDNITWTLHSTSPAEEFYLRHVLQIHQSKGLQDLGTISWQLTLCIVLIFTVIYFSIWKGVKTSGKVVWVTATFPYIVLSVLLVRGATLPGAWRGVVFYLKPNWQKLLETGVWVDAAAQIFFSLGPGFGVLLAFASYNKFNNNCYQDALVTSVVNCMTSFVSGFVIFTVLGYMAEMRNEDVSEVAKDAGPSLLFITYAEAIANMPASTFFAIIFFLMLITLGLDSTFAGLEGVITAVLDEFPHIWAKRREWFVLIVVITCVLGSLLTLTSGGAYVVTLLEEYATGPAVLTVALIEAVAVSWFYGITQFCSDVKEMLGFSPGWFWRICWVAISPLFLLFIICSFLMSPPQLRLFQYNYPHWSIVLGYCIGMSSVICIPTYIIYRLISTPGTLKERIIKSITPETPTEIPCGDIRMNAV

In turn, `Clc1cccc2c(CCN3CCN(c4cccc5[nH]ccc45)CC3)coc12` (as salt: oxalate) [Compound 4v, 1-(2-(7-Chloro-3-benzofuranyl)ethyl)-4-(1H-indol-4-yl)piperazine] registered a melting point of 216 to 218 °C.
Turning to `c1cc(N2CCN(CCc3coc4ccccc34)CC2)c2cc[nH]c2c1` [Compound 1a, 1-(2-(3-Benzofuranyl)ethyl)-4-(1H-indol-4-yl)piperazine], the IC50 in series [1] was 0.031 µM; in series [2] (setting [3]), 0.01 µM.
As to `c1cc(N2CCN(Cc3coc4ccccc34)CC2)c2cc[nH]c2c1` [Compound 1b, 1-(3-Benzofuranylmethyl)-4-(1H-indol-4-yl)piperazine], the IC50 in series [1] (setting [4]) came out at 0.29 µM; in series [2] (setting [3]), 0.21 µM.
As for `Fc1ccc2occ(CCN3CCN(c4cccc5[nH]ccc45)CC3)c2c1` [Compound 1c, 1-(2-(5-Fluoro-3-benzofuranyl)ethyl)-4-(1H-indol-4-yl)piperazine], the IC50 in series [1] turned out to be 0.057 µM; in series [2] (setting [3]), 0.012 µM.
As for `Fc1ccc2occ(CCCCN3CCN(c4cccc5[nH]ccc45)CC3)c2c1` [Compound 1d, 1-(4-(5-Fluoro-3-benzofuranyl)-1-butyl)-4-(1H-indol-4-yl)piperazine], the IC50 in series [1] (setting [4]) was 0.031 µM; in series [2] (setting [3]) it was 0.0025 µM.
Consider `c1ccc2c(CCN3CCN(c4cccc5[nH]ccc45)CC3)c[nH]c2c1` [Compound 1e, 1-(2-(1H-indol-3-yl)ethyl)-4-(1H-indol-4-yl)piperazine], for which the IC50 in series [1] amounted to 0.0044 µM; in series [2] (setting [3]), 0.0069 µM.
As for `c1ccc2c(CCCN3CCN(c4cccc5[nH]ccc45)CC3)c[nH]c2c1` [Compound 1f, 1-(3-(1H-indol-3-yl)-1-propyl)-4-(1H-indol-4-yl)piperazine], the IC50 turned out to be 0.0082 µM in series [1] (setting [4]) and 0.0098 µM in series [2] (setting [3]).
For the molecule `c1ccc2c(CCCCN3CCN(c4cccc5[nH]ccc45)CC3)c[nH]c2c1` [Compound 1g, 1-(4-(1H-indol-3-yl)-1-butyl)-4-(1H-indol-4yl)piperazine], the half-inhibitory concentration (IC50) was found to be 0.012 µM in series [1] (setting [4]) and 0.013 µM in series [2] (setting [3]).
For the molecule `Fc1ccc2occ(CCCN3CCN(c4cccc5[nH]ccc45)CC3)c2c1` [Compound 1h, 1-(3-(5-Fluoro-3-benzofuranyl)-1-propyl)-4-(1H-indol-4-yl)piperazine], the IC50 was found to be 0.0068 µM in series [1] (setting [4]) and 0.011 µM in series [2] (setting [3]).
Molecule `Cc1oc2c(F)c(F)c(F)c(F)c2c1CCN1CCN(c2cccc3[nH]ccc23)CC1` [Compound 1i, 1-(2-(2-Methyl-4,5,6,7-tetrafluoro-3-benzofuranyl)ethyl)-4-(1H-indol-4-yl)piperaziine] showed a half-inhibitory concentration (IC50) in series [2] (setting [3]) of 0.0034 µM.
On to `c1cc(N2CCN(CCc3n[nH]c4ccccc34)CC2)c2cc[nH]c2c1` [Compound 1j, 1-(2-(3-Indazolyl)ethyl)-4-(1H-indol-4-yl)piperazine], for which the IC50 in series [1] (setting [4]) came to 0.36 µM; in series [2], 0.022 µM.
Turning to `Clc1ccc2c(CCN3CCN(c4cccc5[nH]ccc45)CC3)n[nH]c2c1` [Compound 1k, 1-(2-(6-Chloro-3-indazolyl)ethyl)-4-(1H-indol-4-yl)piperazine], the results for the half-maximal inhibitory concentration (IC50) in series [1] (setting [4]) and in series [2] were 0.15 µM and 0.022 µM, respectively.
In turn, `N#Cc1cccc2c(CCN3CCN(c4cccc5[nH]ccc45)CC3)c[nH]c12` [Compound 1l, 1-(2-(7-Cyano-1H-indol-3-yl)ethyl)-4-(1H-indol-4-yl)piperazine] showed an IC50 in series [2] (setting [3]) of 0.0025 µM.
Consider `Clc1ccc2c(CCN3CCN(c4cccc5[nH]ccc45)CC3)c[nH]c2c1` [Compound 2a, 1-(2-(6-Chloro-1H-indol-3-yl)ethyl)-4-(1H-indol-4-yl)piperazine], for which the IC50 worked out at 0.021 µM in series [1] and 0.0034 µM in series [2] (setting [3]).
Regarding `Clc1cccc2[nH]cc(CCN3CCN(c4cccc5[nH]ccc45)CC3)c12` [Compound 2b, 1-(2-(4-Chloro-1H-indol-3-yl)ethyl)-4-(1H-indol-4-yl)piperazine], the results for the IC50 in series [1] and in series [2] (setting [3]) were 0.0069 µM and 0.011 µM, respectively.
Take `Fc1ccc2[nH]cc(CCN3CCN(c4cccc5[nH]ccc45)CC3)c2c1` [Compound 2c, 1-(2-(5-Fluoro-1H-indol-3-yl)ethyl)-4-(1H-indol-4-yl)piperazine]: the values for the IC50 in series [1] and in series [2] (setting [3]) were 0.0023 µM and 0.027 µM, respectively.
For the molecule `Clc1ccc2c(CCN3CC=C(c4cccc5[nH]ccc45)CC3)c[nH]c2c1` [Compound 2g, 1-(2-(6-Chloro-1H-indol-3-yl)ethyl)-4-(1H-indol-4-yl)-1,2,3,6-tetrahydropyridine], the figures for the half-maximal inhibitory concentration (IC50) in series [1] and in series [2] (setting [3]) were 0.022 µM and 0.0028 µM, respectively.
On the same counts, the results for `Fc1ccc2[nH]cc(CCN3CC=C(c4cccc5[nH]ccc45)CC3)c2c1` [Compound 2h, 1-(2-(5-Fluoro-1H-indol-3-yl)ethyl)-4-(1H-indol-4-yl)-1,2,3,6-tetrahydropyridine] are 0.0025 µM and 0.011 µM.
Regarding `Brc1cccc2c(CCN3CCN(c4cccc5[nH]ccc45)CC3)c[nH]c12` [Compound 2i, 1-(2-(7-Bromo-1H-indol-3-yl)ethyl)-4-(1H-indol-4-yl)piperazine], the IC50 was 0.0059 µM in series [1] and 0.0054 µM in series [2] (setting [3]).
For `Brc1ccc2[nH]cc(CCN3CCN(c4ccc5[nH]ccc5c4)CC3)c2c1` [Compound 2t, 1-(2-(5-Bromo-1H-indol-3-yl)ethyl)-4-(1H-indol-5-yl)piperazine], the 50% inhibitory concentration (IC50) in series [1] was 0.039 µM; in series [2] (setting [3]), 0.23 µM.
Take `Clc1ccc2[nH]cc(CCN3CCN(c4ccc5[nH]ccc5c4)CC3)c2c1` [Compound 2u, 1-(2-(5-Chloro-1H-indol-3-yl)ethyl)-4-(1H-indol-5-yl)piperazine]: the half-maximal inhibitory concentration (IC50) came to 0.02 µM in series [1] and 0.31 µM in series [2] (setting [3]).
On the same counts, the results for `OCc1cc(N2CCN(CCc3c[nH]c4ccc(F)cc34)CC2)c2cc[nH]c2c1` [Compound 3a, 1-(2-(5-Fluoro-1H-indol-3-yl)ethyl)-4-(6-hydroxymethyl-1H-indol-4-yl)piperazine] are 0.017 µM and 0.91 µM.
As for `Fc1ccc2c(CCCN3CCN(c4cccc5[nH]ccc45)CC3)noc2c1` [Compound 4a, 1-(3-(6-Fluoro-1,2-benzisoxazol-3-yl)-1-propyl)-4-(1H-indol-4-yl)piperazine], the IC50 worked out at 0.36 µM in series [1] (setting [4]) and 0.0098 µM in series [2] (setting [3]).
Consider `COC(=O)c1cc(N2CCN(CCc3c[nH]c4ccccc34)CC2)c2cc[nH]c2c1` [Compound 4f, 1-(2-(1H-indol-3-yl)ethyl)-4-(6-methoxycarbonyl-1H-indol-4-yl)piperazine], for which the IC50 in series [1] came to 0.014 µM; in series [2] (setting [3]), 1.2 µM.
Regarding `COC(=O)c1cc(N2CCN(CCc3c[nH]c4cc(Cl)ccc34)CC2)c2cc[nH]c2c1` [Compound 4g, 1-(2-(6-Chloro-1H-indol-3-yl)ethyl)-4-(6-methoxycarbonyl-1-H-indol-4-yl)piperazine], the IC50 amounted to 0.023 µM in series [1] and 0.35 µM in series [2] (setting [3]).
As to `COC(=O)c1cc(N2CCN(CCc3coc4ccc(F)cc34)CC2)c2cc[nH]c2c1` [Compound 4h, 1-(2-(5-Fluoro-3-benzofuranyl)ethyl)-4-(6-methoxycarbonyl-1H-indol-4-yl)piperazine], the half-maximal inhibitory concentration (IC50) was found to be 0.071 µM in series [1] (setting [4]) and 3.1 µM in series [2] (setting [3]).
As for `Fc1ccc2occ(CN3CCN(c4cccc5[nH]ccc45)CC3)c2c1` [Compound 4l, 1-(5-Fluoro-3-benzofuranylmethyl)-4-(1H-indol-4-4-yl)piperazine], the IC50 in series [1] (setting [4]) turned out to be 0.95 µM; in series [2] (setting [3]), 0.33 µM.
In the case of `N#Cc1c[nH]c2cccc(N3CCN(CCc4c[nH]c5ccccc45)CC3)c12` [Compound 4m, 1-(3-Cyano-1H-indol-4-yl)-4-(2-(1H-indol-3-yl)ethyl)piperazine], the IC50 in series [1] came to 0.003 µM; in series [2] (setting [3]), 0.0032 µM.
For `N#Cc1c[nH]c2cccc(N3CCN(CCc4coc5ccc(F)cc45)CC3)c12` [Compound 4n, 1-(3-Cyano-1H-indol-4-yl)-4-(2-(5-fluoro-3-benzofuranyl)ethyl)piperazine], the half-maximal inhibitory concentration (IC50) in series [1] (setting [4]) is 0.065 µM; in series [2] (setting [3]), 0.0057 µM.
In the case of `N#Cc1c[nH]c2cccc(N3CCN(CCc4c[nH]c5cc(Cl)ccc45)CC3)c12` [Compound 4o, 1-(2-(6-Chloro-1H-indol-3-yl)ethyl)-4-(3-cyano-1H-indol-4-yl)piperazine], the IC50 is 0.019 µM in series [1] and 0.0029 µM in series [2] (setting [3]).
On to `N#Cc1c[nH]c2cccc(N3CCN(CCc4c[nH]c5cccc(Cl)c45)CC3)c12` [Compound 4x, 1-(2-(4-Chloro-1H-indol-3-yl)ethyl)-4-(3-cyano-1H-indol-4-yl)piperazine], for which, in series [2] (setting [3]), the IC50 is 0.0054 µM.
